Key:
human MCH-1 receptor = human MCH-1 receptor (Homo sapiens (Human), UniProt Q99705); assay: Binding assay for human melanin-concentrating hormone (MCH1) receptor; settings: membranes from CHO-K1 cells expressing human MCH1 receptor; 1.4 nM [3H]-labeled radioligand, 60 min at 25° C., pH 7.4; Ki from Cheng Prusoff equation
Protocol: Binding Assay for Human Melanin-Concentrating Hormone (MCH1) Receptor
Evaluation of the affinity of compounds for the human MCH-1 receptor was accomplished using 4-(3,4,5-tritritiumbenzyloxy)-1-(1-(2-(pyrrolidin-1-yl)ethyl)-1H-indazol-5-yl)pyridin-2(1H)-one and membranes prepared from stable CHO-K1 cells expressing the human MCH1 receptor obtained from Euroscreen (Batch 1138). Cell membrane homogenates (8.92 μg protein) were incubated for 60 min at 25° C. with 1.4 nM of the [^3H]-labeled compound in the absence or presence of the test compound in 50 mM Tris-HCl buffer, pH 7.4. Nonspecific binding was determined in the presence of 50 μM 1-(5-(4-cyanophenyl)bicyclo[3.1.0]hexan-2-yl)-3-(4-fluoro-3-(trifluoromethyl)phenyl)-1-(3-(4-methylpiperazin-1-yl)propyl)urea. Following incubation, the samples were filtered rapidly under vacuum through Skatron 11731 filters, pre-soaked in 0.5% polyethylenimine, and washed with ice-cold 50 mM Tris-HCl buffer, pH 7.4, (wash setting 9,9,0) using a Skatron cell harvester. The filters were counted for radioactivity in a liquid scintillation counter (Tri-Carb 2100TR, Packard) using a scintillation cocktail (Ultima Gold MV, Perkin Elmer).
The results are expressed as a percent inhibition of the control radioligand specific binding. The IC50 value (concentration causing a half-maximal inhibition of control specific binding) and Hill coefficient (nH) were determined by non-linear regression analysis of the competition curve using Hill equation curve fitting. The inhibition constant (Ki) was calculated from the Cheng Prusoff equation: (Ki=IC50/(1+(L/KD)), where L=concentration of radioligand in the assay, and KD=affinity of the radioligand for the receptor.

Chain of human MCH-1 receptor (Q99705 whole entry): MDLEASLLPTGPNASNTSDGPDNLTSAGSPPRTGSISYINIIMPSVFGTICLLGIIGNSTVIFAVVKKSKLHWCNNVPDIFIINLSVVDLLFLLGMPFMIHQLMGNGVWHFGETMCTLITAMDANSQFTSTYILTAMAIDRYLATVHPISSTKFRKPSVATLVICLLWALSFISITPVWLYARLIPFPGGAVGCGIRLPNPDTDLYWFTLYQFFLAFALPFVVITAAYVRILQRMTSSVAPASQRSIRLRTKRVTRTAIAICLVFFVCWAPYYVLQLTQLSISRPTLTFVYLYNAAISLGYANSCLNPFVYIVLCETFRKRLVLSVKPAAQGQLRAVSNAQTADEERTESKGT

Row | Ki (human MCH-1 receptor) | melting point | SMILES
1 | 0.012 µM | 260 to 264 °C | Cl.Cn1c2c(c3ccc(-n4ccc(OCc5ccccc5)cc4=O)cc31)C1CCCN1CC2 (stereo not shown) [Example 17, 4-(Benzyloxy)-1-(7-methyl-2,3,5,6,7,11c-hexahydro-1H-indolizino[7,8-b]indol-9-yl)pyridin-2(1H)-one Hydrochloride]
2 | 0.012 µM | 250 to 254 °C | Cl.Cn1c2c(c3ccc(-n4ccc(OCc5ccc(C(F)(F)F)nc5)cc4=O)cc31)C1CCCN1CC2 (stereo not shown) [Example 18, 1-(7-Methyl-2,3,5,6,7,11c-hexahydro-1H-indolizino[7,8-b]indol-9-yl)-4-((6-(trifluoromethyl)pyridin-3-yl)methoxy)pyridin-2(1H)-one Hydrochloride]
3 | 0.012 µM | 280 to 290 °C | Cl.O=c1cc(-c2ccc(C(F)(F)F)cc2)ccn1-c1ccc2c3c([nH]c2c1)CCN1CCCC31 (stereo not shown) [Example 26, 1-(2,3,5,6,7,11c-Hexahydro-1H-indolizino[7,8-b]indol-9-yl)-4-(4-(trifluoromethyl)phenyl)pyridin-2(1H)-one Hydrochloride]
4 | 0.034 µM | 205 to 215 °C | Cl.O=c1cc(-c2ccc(C(F)(F)F)nc2)ccn1-c1ccc2c3c([nH]c2c1)CCN1CCCC31 (stereo not shown) [Example 27, 1-(2,3,5,6,7,11c-Hexahydro-1H-indolizino[7,8-b]indol-9-yl)-4-(6-(trifluoromethyl)pyridin-3-yl)pyridin-2(1H)-one Hydrochloride]
5 | 0.012 µM | 210 to 220 °C | Cl.O=c1cc(OCc2ccc(F)cc2F)ccn1-c1ccc2c3c([nH]c2c1)CCN1CCCC31 (stereo not shown) [Example 28, 4-(2,4-difluorobenzyloxy)-1-(2,3,5,6,7,11c-hexahydro-1H-indolizino[7,8-b]indol-9-yl)pyridin-2(1H)-one Hydrochloride]
6 | 0.007 µM | 245 to 248 °C | Cl.Cn1c2c(c3ccc(-n4ccc(-c5ccc(C(F)(F)F)nc5)cc4=O)cc31)CN1CCCCC1C2 (stereo not shown) [Example 36, 1-(5-Methyl-5,6,6a,7,8,9,10,12-octahydroindolo[2,3-b]quinolizin-3-yl)-4-(6-(trifluoromethyl)pyridin-3-yl)pyridin-2(1H)-one Hydrochloride]
7 | 0.0085 µM | 275 to 285 °C | Cl.O=c1cc(-c2ccc(C(F)(F)F)cc2)ccn1-c1ccc2c3c([nH]c2c1)CC1CCCN1C3 (stereo not shown) [Example 39, 1-(2,3,5,10,11,11a-Hexahydro-1H-indolizino[7,6-b]indol-8-yl)-4-(4-(trifluoromethyl)phenyl)pyridin-2(1H)-one Hydrochloride]

Further lines, the molecule ahead of its results:

Row | SMILES | Ki (human MCH-1 receptor) | melting point
8 | Cl.Cn1c2c(c3ccc(-n4ccc(OCc5ccc(F)cn5)cc4=O)cc31)CCN1CCCCC21 (stereo not shown) [Example 7, 4-((5-Fluoropyridin-2-yl)methoxy)-1-(12-methyl-1,2,3,4,6,7,12,12b-octahydroindolo[2,3-a]quinolizin-10-yl)pyridin-2(1H)-one Hydrochloride] | 0.045 µM | 200 °C (dec.)
9 | Cl.Cn1c2c(c3ccc(-n4ccc(OCc5ccc(Cl)cn5)cc4=O)cc31)CCN1CCCCC21 (stereo not shown) [Example 8, 4-((5-Chloropyridin-2-yl)methoxy)-1-(12-methyl-1,2,3,4,6,7,12,12b-octahydroindolo[2,3-a]quinolizin-10-yl)pyridin-2(1H)-one Hydrochloride] | 0.02 µM | 204 to 208 °C
10 | Cl.Cn1c2c(c3ccc(-n4ccc(-c5ccc(Cl)cn5)cc4=O)cc31)CCN1CCCCC21 (stereo not shown) [Example 9, 4-(5-Chloropyridin-2-yl)-1-(12-methyl-1,2,3,4,6,7,12,12b-octahydroindolo[2,3-a]quinolizin-10-yl)pyridin-2(1H)-one Hydrochloride] | 1.75 µM | 210 to 213 °C
11 | Cl.Cn1c2c(c3ccc(-n4ccc(OCc5ccccc5)cc4=O)cc31)CN1CCCC1C2 (stereo not shown) [Example 11, 4-(Benzyloxy)-1-(10-methyl-2,3,5,10,11,11a-hexahydro-1H-indolizino[7,6-b]indol-8-yl)pyridin-2(1H)-one Hydrochloride] | 0.0081 µM | 255 to 258 °C
12 | Cl.Cn1c2c(c3ccc(-n4ccc(-c5ccc(C(F)(F)F)nc5)cc4=O)cc31)C1CCCN1CC2 (stereo not shown) [Example 14, 1-(7-Methyl-2,3,5,6,7,11c-hexahydro-1H-indolizino[7,8-b]indol-9-yl)-4-(6-(trifluoromethyl)pyridin-3-yl)pyridin-2(1H)-one Hydrochloride] | 0.153 µM | 235 to 240 °C
13 | Cl.O=c1cc(OCc2ccccc2)ccn1-c1ccc2c3c([nH]c2c1)CC1CCCN1C3 (stereo not shown) [Example 16, 4-(Benzyloxy)-1-(2,3,5,10,11,11a-hexahydro-1H-indolizino[7,6-b]indol-8-yl)pyridin-2(1H)-one Hydrochloride] | 0.007 µM | 270 to 273 °C
14 | Cl.Cn1c2c(c3ccc(-n4ccc(OCc5ccccc5)cc4=O)cc31)C1CCCCN1CC2 (stereo not shown) [Example 22, 4-(Benzyloxy)-1-(8-methyl-1,2,3,4,6,7,8,12c-octahydroindolo[3,2-a]quinolizin-10-yl)pyridin-2(1H)-one Hydrochloride] | 0.021 µM | 250 to 253 °C
15 | Cl.O=c1cc(OCc2ccccc2)ccn1-c1ccc2c3c([nH]c2c1)CC1CCCCN1C3 (stereo not shown) [Example 29, 4-(Benzyloxy)-1-(5,6,6a,7,8,9,10,12-octahydroindolo[2,3-b]quinolizin-3-yl)-pyridin-2(1H)-one Hydrochloride] | 0.0085 µM | 270 to 273 °C
16 | Cl.Cn1c2c(c3ccc(-n4ccc(-c5ccc(C(F)(F)F)nc5)cc4=O)cc31)CN1CCCC1C2 (stereo not shown) [Example 30, 1-(10-Methyl-2,3,5,10,11,11a-hexahydro-1H-indolizino[7,6-b]indol-8-yl)-4-(6-(trifluoromethyl)pyridin-3-yl)pyridin-2(1H)-one Hydrochloride] | 0.0083 µM | 290 to 293 °C
17 | Cl.Cn1c2c(c3ccc(-n4ccc(OCc5ccc(C(F)(F)F)nc5)cc4=O)cc31)CN1CCCC1C2 (stereo not shown) [Example 32, 1-(10-Methyl-2,3,5,10,11,11a-hexahydro-1H-indolizino[7,6-b]indol-8-yl)-4-((6-(trifluoromethyl)pyridin-3-yl)methoxy)pyridin-2(1H)-one Hydrochloride] | 0.024 µM | 255 to 259 °C
18 | Cl.Cn1c2c(c3ccc(-n4ccc(OCc5ccc(C(F)(F)F)nc5)cc4=O)cc31)CN1CCCCC1C2 (stereo not shown) [Example 34, 1-(5-Methyl-5,6,6a,7,8,9,10,12-octahydroindolo[2,3-b]quinolizin-3-yl)-4-((6-(trifluoromethyl)pyridin-3-yl)methoxy)pyridin-2(1H)-one Hydrochloride] | 0.024 µM | 260 to 262 °C
19 | Cl.O=c1cc(-c2ccc(C(F)(F)F)nc2)ccn1-c1ccc2c3c([nH]c2c1)CC1CCCN1C3 (stereo not shown) [Example 41, 1-(2,3,5,10,11,11a-Hexahydro-1H-indolizino[7,6-b]indol-8-yl)-4-(6-(trifluoromethyl)pyridin-3-yl)pyridin-2(1H)-one Hydrochloride] | 0.014 µM | 275 to 285 °C
20 | Cl.Cn1c2c(c3ccc(-n4ccc(OCc5ccccc5)cc4=O)nc31)C1CCCN1CC2 (stereo not shown) [Example 44, 4-(Benzyloxy)-1-(7-methyl-2,3,5,6,7,11c-hexahydro-1H-pyrido[3′,2′:4,5]pyrrolo[2,3-g]indolizin-9-yl)pyridin-2(1H)-one Hydrochloride] | 0.012 µM | 130 to 140 °C

— patent US8618299B2, “Azinone-substituted azapolycycle MCH-1 antagonists, methods of making, and use thereof” (Albany Molecular Research, Inc., priority 2009, dated 2013)
